Assay results from US20070049593A1 (priority 2004, published 2007).
Where a name gives a salt, the structure may show the parent alone.

What follows are molecules tested against T1, HCV polymerase (Hepatitis C virus genotype 1b, UniProt P26663) (assay: biochemical).
T1 construct: a region encoding NS5B (J Virol 1991 March, 65(3), 1105-13, 544 amino acids after deletion of 47 amino acids on the C-terminal); 6xHis (C); made in house; host or cells: Escherichia coli
T1 sequence (P26663 2420-2963): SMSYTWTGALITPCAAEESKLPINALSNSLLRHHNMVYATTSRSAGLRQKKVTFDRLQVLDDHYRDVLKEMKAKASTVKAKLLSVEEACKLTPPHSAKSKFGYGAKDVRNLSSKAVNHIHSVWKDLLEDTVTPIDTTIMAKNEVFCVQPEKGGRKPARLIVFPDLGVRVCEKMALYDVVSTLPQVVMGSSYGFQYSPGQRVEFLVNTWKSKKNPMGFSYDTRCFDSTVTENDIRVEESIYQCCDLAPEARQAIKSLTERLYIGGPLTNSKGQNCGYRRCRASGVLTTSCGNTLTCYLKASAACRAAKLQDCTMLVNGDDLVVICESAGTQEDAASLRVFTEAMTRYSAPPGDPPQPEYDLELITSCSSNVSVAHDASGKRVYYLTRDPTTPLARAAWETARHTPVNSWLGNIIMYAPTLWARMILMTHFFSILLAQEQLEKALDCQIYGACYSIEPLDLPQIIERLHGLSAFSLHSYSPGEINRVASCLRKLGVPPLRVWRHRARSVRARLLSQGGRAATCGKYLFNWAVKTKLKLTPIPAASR
Parameters: species or system HCV BK strain
Procedure, shortened: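 His-tagged NS5B (BK strain, 47-aa C-terminal deletion, E. coli-expressed) at 0.5 μg/ml copied 5 μg/ml run-off RNA bearing the HCV 3′ UTR with 2 μM UTP plus [3H]UTP, 50 μM ATP/GTP, in pH 7.5 Tris with 5 mM MgCl2, 25 °C, 90 min. TCA-precipitated RNA was counted and IC50 calculated.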
With `CC(C)(C)OC(=O)N1CCC(NC(=O)c2ccc3c(C4CCCCC4)c4n(c3c2)CCOc2ccccc2-4)(C(=O)Nc2ccc(/C=C/C(=O)O)cc2)CC1` [Example 2-155, tert-butyl 4-[4-((E)-2-carboxyvinyl)phenylcarbamoyl]-4-[(12-cyclohexyl-6,7-dihydro-5-oxa-7a-azadibenzo[a,e]azulene-9-carbonyl)amino]piperidine-1-carboxylate] the IC50 was under 100 nM.
Molecule `CC(C)(COc1ccc(C(=O)O)cc1)NC(=O)c1ccc2c(C3CCCCC3)c3n(c2c1)CCOc1ccccc1-3` [Example 2-156, 4-{2-[(12-cyclohexyl-6,7-dihydro-5-oxa-7a-azadibenzo[a,e]azulene-9-carbonyl)amino]-2-methylpropoxy}benzoic acid] has an IC50 of under 100 nM.
With `CC(C)(COc1ccc(C#N)cc1)NC(=O)c1ccc2c(C3CCCCC3)c3n(c2c1)CCOc1ccccc1-3` [Example 2-157, N-[2-(4-cyanophenoxy)-1,1-dimethylethyl]-12-cyclohexyl-6,7-dihydro-5-oxa-7a-azadibenzo[a,e]azulene-9-carboxamide] the IC50 was 100 to 1000 nM.
With `CC(C)(CNc1ccc(C#N)cc1)NC(=O)c1ccc2c(C3CCCCC3)c3n(c2c1)CCOc1ccccc1-3` [Example 2-158, N-[2-(4-cyanophenylamino)-1,1-dimethylethyl]-12-cyclohexyl-6,7-dihydro-5-oxa-7a-azadibenzo[a,e]azulene-9-carboxamide] the IC50 was under 100 nM.
With `O=C(O)c1ccc2nc(C3(NC(=O)c4ccc5c(C6CCCCC6)c6n(c5c4)CCOc4ccccc4-6)CCC3)[nH]c2c1` [Example 2-160, 2-{1-[(12-cyclohexyl-6,7-dihydro-5-oxa-7a-azadibenzo[a,e]azulene-9-carbonyl)amino]cyclobutyl}-3H-benzimidazole-5-carboxylic acid] the IC50 was under 100 nM.
`CC(C)N(CCN1CCCCC1)c1cccc2c1OCCn1c-2c(C2CCCCC2)c2ccc(C(=O)O)cc21` [Example 2-161, 12-cyclohexyl-4-{N-isopropyl-N-[2-(piperidin-1-yl)ethyl]amino}-6,7-dihydro-5-oxa-7a-azadibenzo[a,e]azulene-9-carboxylic acid dihydrochloride] showed an IC50 of under 100 nM.
In the case of `CN(C)CCN(C)c1cccc2c1OCCn1c-2c(C2CCCCC2)c2ccc(C(=O)O)cc21` [Example 2-162, 12-cyclohexyl-4-[N-(2-dimethylaminoethyl)-N-methylamino]-6,7-dihydro-5-oxa-7a-azadibenzo[a,e]azulene-9-carboxylic acid dihydrochloride], the IC50 is reported as under 100 nM.
With `COCC(C)(NC(=O)c1ccc2c(C3CCCCC3)c3n(c2c1)CCOc1ccccc1-3)C(=O)Nc1ccc(/C=C/C(=O)O)cc1` (centres unmarked) [Example 2-163, (E)-3-(4-{2-[(12-cyclohexyl-6,7-dihydro-5-oxa-7a-azadibenzo[a,e]azulene-9-carbonyl)amino]-3-methoxy-2-methylpropionylamino}phenyl)acrylic acid] the IC50 was under 100 nM.
`O=C(NCCOCCO)c1ccc2c(C3CCCCC3)c3n(c2c1)CCOc1ccccc1-3` [Example 2-164, N-[2-(2-hydroxyethoxy)ethyl]-12-cyclohexyl-6,7-dihydro-5-oxa-7a-azadibenzo[a,e]azulene-9-carboxamide] was tested, and the IC50 was 100 to 1000 nM.
For `CC(C)(C)NC(=O)c1ccc2c(C3CCCCC3)c3n(c2c1)CCOc1ccccc1-3` [Example 2-165, N-tert-butyl-12-cyclohexyl-6,7-dihydro-5-oxa-7a-azadibenzo[a,e]azulene-9-carboxamide], the IC50 was 100 to 1000 nM.
`O=C(N[C@H]1CC[C@H](O)CC1)c1ccc2c(C3CCCCC3)c3n(c2c1)CCOc1ccccc1-3` [Example 2-166, N-(trans-4-hydroxycyclohexyl)-12-cyclohexyl-6,7-dihydro-5-oxa-7a-azadibenzo[a,e]azulene-9-carboxamide] was tested, and the IC50 was under 100 nM.
In the case of `CC(C)(NC(=O)c1ccc2c(C3CCCCC3)c3n(c2c1)CCOc1ccccc1-3)c1nc(C(=O)O)cs1` [Example 2-167, 2-{1-[(12-cyclohexyl-6,7-dihydro-5-oxa-7a-azadibenzo[a,e]azulene-9-carbonyl)amino]-1-methylethyl}thiazole-4-carboxylic acid], the IC50 is reported as under 100 nM.
Work on `CCN(CCN1CCCOCC1)c1cccc2c1OCCn1c-2c(C2CCCCC2)c2ccc(C(=O)O)cc21` [Example 2-168, 12-cyclohexyl-4-{N-ethyl-N-[2-(1,4-oxazepan-4-yl)ethyl]amino}-6,7-dihydro-5-oxa-7a-azadibenzo[a,e]azulene-9-carboxylic acid dihydrochloride] yielded an IC50 of under 100 nM.
`CCN(CCCN1CCCCC1)c1cccc2c1OCCn1c-2c(C2CCCCC2)c2ccc(C(=O)O)cc21` [Example 2-169, 12-cyclohexyl-4-{N-ethyl-N-[3-(piperidin-1-yl)propyl]amino}-6,7-dihydro-5-oxa-7a-azadibenzo[a,e]azulene-9-carboxylic acid dihydrochloride] was tested, and the IC50 was under 100 nM.
`CCN(CCN1CCOCC1)c1cccc2c1OCCn1c-2c(C2CCCCC2)c2ccc(C(=O)O)cc21` [Example 2-170, 12-cyclohexyl-4-{N-ethyl-N-[2-(morpholin-4-yl)ethyl]amino}-6,7-dihydro-5-oxa-7a-azadibenzo[a,e]azulene-9-carboxylic acid dihydrochloride] showed an IC50 of under 100 nM.
Molecule `CC(C)(NC(=O)c1ccc2c(C3CCCCC3)c3n(c2c1)CCOc1ccccc1-3)c1ccc(CO)cc1` [Example 2-171, N-[1-(4-hydroxymethylphenyl)-1-methylethyl]-12-cyclohexyl-6,7-dihydro-5-oxa-7a-azadibenzo[a,e]azulene-9-carboxamide] has an IC50 of under 100 nM.
With `CCOC(=O)c1csc(C(C)(C)NC(=O)c2ccc3c(C4CCCCC4)c4n(c3c2)CCOc2ccccc2-4)n1` [Example 2-172, ethyl 2-{1-[(12-cyclohexyl-6,7-dihydro-5-oxa-7a-azadibenzo[a,e]azulene-9-carbonyl)amino]-1-methylethyl}thiazole-4-carboxylate] the IC50 was under 100 nM.
In the case of `CNC(=O)c1ccc2c(C3CCCCC3)c3n(c2c1)CCOc1ccccc1-3` [Example 2-173, N-methyl-12-cyclohexyl-6,7-dihydro-5-oxa-7a-azadibenzo[a,e]azulene-9-carboxamide], the IC50 is reported as under 100 nM.
`O=C(O)/C=C/c1ccc(NC(=O)C2(NC(=O)c3ccc4c(C5CCCCC5)c5n(c4c3)CCOc3ccccc3-5)CCNCC2)cc1` [Example 2-174, (E)-3-[4-({4-[(12-cyclohexyl-6,7-dihydro-5-oxa-7a-azadibenzo[a,e]azulene-9-carbonyl)amino]piperidine-4-carbonyl}amino)phenyl]acrylic acid] showed an IC50 of under 100 nM.
`COC(=O)[C@H](Cc1ccc(O)cc1)NC(=O)c1ccc2c(C3CCCCC3)c3n(c2c1)CCOc1ccccc1-3` [Example 2-175, methyl (S)-2-[(12-cyclohexyl-6,7-dihydro-5-oxa-7a-azadibenzo[a,e]azulene-9-carbonyl)amino]-3-(4-hydroxyphenyl)propionate] was tested, and the IC50 was under 100 nM.
`CN(C)C(=O)CNc1cccc2c1OCCn1c-2c(C2CCCCC2)c2ccc(C(=O)O)cc21` [Example 2-176, 12-cyclohexyl-4-(dimethylcarbamoylmethylamino)-6,7-dihydro-5-oxa-7a-azadibenzo[a,e]azulene-9-carboxylic acid] showed an IC50 of under 100 nM.
Work on `CC(C)(NC(=O)c1ccc2c(C3CCCCC3)c3n(c2c1)CCOc1ccccc1-3)C(=O)N[C@H]1CC[C@H](O)CC1` [Example 2-177, N-[1-(trans-4-hydroxycyclohexylcarbamoyl)-1-methylethyl]-12-cyclohexyl-6,7-dihydro-5-oxa-7a-azadibenzo[a,e]azulene-9-carboxamide] yielded an IC50 of under 100 nM.
Molecule `CCN(C(=O)CN1CCCCC1)c1cccc2c1OCCn1c-2c(C2CCCCC2)c2ccc(C(=O)O)cc21` [Example 2-178, 12-cyclohexyl-4-{N-ethyl-N-[2-(piperidin-1-yl)acetyl]amino}-6,7-dihydro-5-oxa-7a-azadibenzo[a,e]azulene-9-carboxylic acid monohydrochloride] has an IC50 of under 100 nM.
Molecule `O=C(Nc1ccc(OCc2ccccc2)cc1)c1ccc2c(C3CCCCC3)c3n(c2c1)CCOc1ccccc1-3` [Example 2-179, N-(4-benzyloxyphenyl)-12-cyclohexyl-6,7-dihydro-5-oxa-7a-azadibenzo[a,e]azulene-9-carboxamide] has an IC50 of 100 to 1000 nM.
With `O=C(N[C@@H](Cc1ccc(O)cc1)C(=O)O)c1ccc2c(C3CCCCC3)c3n(c2c1)CCOc1ccccc1-3` [Example 2-180, (S)-2-[(12-cyclohexyl-6,7-dihydro-5-oxa-7a-azadibenzo[a,e]azulene-9-carbonyl)amino]-3-(4-hydroxyphenyl)propionic acid] the IC50 was under 100 nM.
In the case of `CC(=O)N1CCC(NC(=O)c2ccc3c(C4CCCCC4)c4n(c3c2)CCOc2ccccc2-4)(C(=O)O)CC1` [Example 2-181, 1-acetyl-4-[(12-cyclohexyl-6,7-dihydro-5-oxa-7a-azadibenzo[a,e]azulene-9-carbonyl)amino]piperidine-4-carboxylic acid], the IC50 is reported as under 100 nM.
`CN1CCC(NC(=O)c2ccc3c(C4CCCCC4)c4n(c3c2)CCOc2ccccc2-4)(C(=O)O)CC1` [Example 2-182, 4-[(12-cyclohexyl-6,7-dihydro-5-oxa-7a-azadibenzo[a,e]azulene-9-carbonyl)amino]-1-methylpiperidine-4-carboxylic acid] showed an IC50 of under 100 nM.
`CC(C)(CNc1ccc(C(=O)O)cc1)NC(=O)c1ccc2c(C3CCCCC3)c3n(c2c1)CCOc1ccccc1-3` [Example 2-183, 4-{2-[(12-cyclohexyl-6,7-dihydro-5-oxa-7a-azadibenzo[a,e]azulene-9-carbonyl)amino]-2-methylpropylamino}benzoic acid] was tested, and the IC50 was under 100 nM.
Work on `CC(C)(CNc1ccc(C(N)=O)cc1)NC(=O)c1ccc2c(C3CCCCC3)c3n(c2c1)CCOc1ccccc1-3` [Example 2-184, N-[2-(4-carbamoylphenylamino)-1,1-dimethylethyl]-12-cyclohexyl-6,7-dihydro-5-oxa-7a-azadibenzo[a,e]azulene-9-carboxamide] yielded an IC50 of under 100 nM.
